Experimental data: patent US20200368260A1, “USE OF BENZOPYRAN COMPOUND IN PREPARATION OF PRODUCT FOR REGULATING LIPID METABOLISM AND COMPOSITION OF THE SAME” (priority 2019, published 2020)

Experiments:
Assay type in all cases: cell-based, human
HepG2 cells = test: MTT cell viability experiment, effect of treatment time (oleic acid NAFLD cell model); conditions: for cell viability among several other groups of treatment time: other treatment times (0, 12, 24, 48 h); for cell viability: treated for 6 h, FIG. 3; for cytotoxicity with the increase in time: treatment up to 48 h
Experimental: The HepG2 cells were seeded into a 96-well culture plate at 1×10^4 cells per well, incubated in a DMEM culture medium containing 10% fetal bovine serum for 12 h until complete confluence of the cells, and then the culture medium was replaced by respective concentrations of 0, 0.5, 1, 1.5, 2, 2.5, 3, 3.5, 4 mM of oleic acid formulated with a serum-free culture medium to treat the cells for 0, 24, 48, and 72 hours, with 4 replicate wells being set for each concentration. After the completion of the incubation, 10 μL of a freshly prepared MTT solution at a final concentration of 5 mg/mL was added into each well and the culture was continued for 4 h. Then, the liquid in the culture well was pipetted off to terminate the reaction. Each well was added with 100 μL of DMSO, and shaken fully on a plate shaker for […] such that the crystalline was fully dissolved, and an A490 absorbance was measured on a microplate reader. The cell proliferation viability was calculated according to the following formula.
Cell proliferation viability (%)=(the OD of drug group/the OD of blank group)×100%
1. The culture, model establishment and experimental steps of the cells were operated according to 1.2.1. When the cells were cultured to the confluence of 70%, the cells were treated with 0.5 mM for 24 h to establish a cell model of nonalcoholic fatty liver disease. The anthocyanin compound mother liquor was diluted to 10 μM to treat the cells for 0, 6, 12, 24, and 48 h. The MTT cell proliferation viability experiment determined the optimal dosing time.

high-fat HepG2 cells = test: Total cholesterol (TC) content in the cells, TC kit; conditions: for level of TC in a high fat cell: FIGS. 4A, 5A; for level of TC, compared with control group and low dose group: medium and high doses
Experimental: 2. The culture, model establishment and experimental steps of the cells were operated according to the above steps. The anthocyanin compound mother liquor was diluted to 0, 0.1, 1, 10, 50, and 100 μM to treat the high-fat HepG2 cells, respectively.
3. The culture solution was pipetted off, gently washed with PBS for 3 times, and added with trypsin to digest the cells for 1 min The cell suspension was pipetted into a 1.5 mL sterile EP tube, centrifuged at 1000 rpm for 10 minutes, the supernatant was discarded, the pellet was added with an appropriate amount of PBS, ultrasonically crushed under the condition of an ice-water bath, and the prepared homogenate was not centrifuged and was ready for determination.
The total cholesterol (TC) content in the cells was determined according to the operating instructions of a TC kit. The protein content in the cells was determined by a BCA protein concentration kit, and the total cholesterol content in the cells was calibrated with the protein content.

p62 = test: Western blotting, protein expression in oleic acid induced HepG2 cells; conditions: high dose group
Experimental: (§1) The culture, model establishment and drug treatment manners of the cells were operated according to 1.2.3. After completion, cells were collected, cytoplasmic proteins were extracted, and protein electrophoresis was conducted after quantification. Particularly the following methods were used:
(§2) When the cell confluence reached 70%, 0.5 mM oleic acid was added to treat the cells for 24 h. After completion, the cells were collected and the cytoplasmic protein was extracted, and the protein electrophoresis was conducted after quantification. The electrophoresis method was as follows:
(§3) After cell culture was completed, the culture plate was taken out, the culture medium in the well was discarded, the pellet was washed twice with PBS, placed onto an ice bath, and added with 100 μL of a protein lysis buffer (RIPA) (PMSF was added into the cell lysis buffer at 1:1000 within few minutes before the use, with a final concentration of 1 mM) per well. After the cells were lysed for about […], the cells were scraped off with a cell scraper, pipetted into a 1.5 mL centrifuge tube (which could be crushed with an ultrasonic cell disruptor for 3-5 times), then centrifuged at 12,000 rpm under 4° C. for 15-20 mM. The supernatant was taken and transferred into a new centrifuge tube for protein quantification or storage at −80° C.
(§4) Theprotein content was determined by a BCA method, and the operation method was carried out according to the instructions of the kit. After the protein concentration was measured, the protein sample was added with a 5× loading buffer and mixed uniformly at 1:4, then subjected to water bath at 100° C. for […] (entangling with a sealing film to prevent bouncing off), and stored at 4° C.
(§5) The specific operation method of protein electrophoresis was in accordance with the relevant references. Since each of the molecular weight of the target proteins was within 10-80 KDa except for FASN (the separation gel was prepared according to the following table), the separation gel concentration was selected to be 10%, and the concentration of the FASN protein separation gel was selected to be 6%.
(§6) A spacer gel was formulated according to the following table, and sample loading was conducted. After completion, electrophoresis should be conducted as soon as possible, where concentration was conducted at 80 v for 30 min, and then electrophoresis was conducted at 120 v until the front edge ran to the lower edge of the separation gel, and the electrophoresis was stopped.
3. […]

Bcl-1 = test: as above; conditions: high dose group
Experimental: as §1, §2, §3, §4, §5, §6
3. […]

| Compound | cell viability among several other groups of treatment time (HepG2 cells) | cell viability (HepG2 cells) | cytotoxicity with the increase in time (HepG2 cells) | level of TC in a high fat cell (high-fat HepG2 cells) | level of TC, compared with control group and low dose group (high-fat HepG2 cells) | protein expression of p62 (p62) | protein expression of Bcl-1 (Bcl-1) |
| --- | --- | --- | --- | --- | --- | --- | --- |
| COc1cc(-c2[o+]c3cc(O)cc(O)c3cc2O[C@@H]2O[C@H](CO)[C@@H](O)[C@H](O)[C@H]2O)cc(OC)c1O [malvidin-3-O-β-D glucoside] | no significant difference | significantly increased | not cytotoxic | reduce | very significant reduction | inhibition trend | inhibition trend |
| COc1cc(-c2[o+]c3cc(O)cc(O)c3cc2O[C@@H]2O[C@H](CO)[C@@H](O)[C@H](O)[C@H]2O)cc(O)c1O [petunidin-3-O-β-D glucoside] | no significant difference | significantly increased | not cytotoxic | reduce | very significant reduction | inhibition trend | inhibition trend |
